pIC50: −log10 of the molar value. Peptide text beside a SMILES is read from it. * marks the point of attachment. Cbz = O=C(OCc1ccccc1)*; CH2F = FC*
Experiments:
HUVECs = experiment: qPCR of miR-126 strand amounts and nucleo-cytoplasmic distribution in HUVECs; assay type: cell-based, human; settings: for nuclear miR-126-5p: fractional qPCR, ivermectin with rapamycin, 3-methyladenine with KLF2 overexpression
Method: HUVECs were treated with rapamycin (Santa Cruz Biotechnology) at 5 µM, ivermectin (Santa Cruz Biotechnology) at […], 3-methyladenine (Sigma Aldrich) at 5 mM, and/or camptothecin (Abcam) at 500 nM. Unless stated otherwise, treatment was applied for 3 h to analyze early processes and to avoid activation of concomitant or compensatory mechanisms. RNA interference technology was applied to generate specific knockdowns with siRNA against ATG5, ATG7, Mex3a (Qiagen). Functional studies on miRNA function were carried with miScript miRNA mimics and inhibitors of miR-126-5p (Qiagen). Overexpression of KLF2 and Mex3a were obtained by pCMV-hKLF2 and pCMV-hMex3a plasmids. Transfections were performed by electroporation using Amaxa Nucleofector technology (Lonza) or Lipofectamine™ 2000 (ThermoFisher Scientific) according to the manufacturer's protocols.

recombinant caspase-3 = target: T1, recombinant caspase-3 (Homo sapiens, UniProt P42574); experiment: Cell-free analysis of caspase-3 activity (substrate cleavage); assay type: biochemical; settings: substrate cleavage by recombinant caspase-3, cell-free
T1 sequence (P42574 29-175 limits assumed): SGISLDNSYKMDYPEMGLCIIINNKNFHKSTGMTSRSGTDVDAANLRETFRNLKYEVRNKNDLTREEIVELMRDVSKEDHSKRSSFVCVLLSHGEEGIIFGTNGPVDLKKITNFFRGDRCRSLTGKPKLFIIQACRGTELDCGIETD
T1 sequence (P42574 176-277 limits assumed): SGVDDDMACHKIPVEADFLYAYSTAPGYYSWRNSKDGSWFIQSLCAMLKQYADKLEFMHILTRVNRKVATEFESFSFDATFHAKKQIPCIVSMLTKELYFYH

Compound | nuclear miR-126-5p (HUVECs) | other results
Cn1cnc(N)c2ncnc1-2 [3-methyladenine] | blunted | 
COC(=O)C[C@H](NC(=O)[C@H](C)NC(=O)[C@@H](NC(=O)OCc1ccccc1)C(C)C)C(=O)CF [Z-VAD-FMK] (Cbz-Val-Ala-Asp(OMe)-CH2F) |  | pIC50 (recombinant caspase-3): 4.12
CO/C1=C\C(C)=C\[C@@H](C)[C@@H](O)[C@@H](C)C/C(C)=C/C=C/[C@H](OC)[C@@H]([C@@H](C)[C@@H](O)[C@H](C)[C@@]2(O)C[C@@H](O)[C@H](C)[C@@H](C(C)C)O2)OC1=O [bafilomycin] |  | amount of miR-126-3p (HUVECs; ECs): restored
ivermectin | prevented | 

From patent EP3889262A1, “INHIBITION OF CASPASE-3 BY THE MICRORNA 126-5P” (Ludwig-Maximilians-Universität München, priority 2020, dated 2021)
